Among the data in patent publication EP3597653A1, “CYCLIC INHIBITORS OF HEPATITIS B VIRUS” (IRBM S.P.A., priority 2018, dated 2020) are EC50 and inhibition values, retold here.

The structures appear in SMILES notation. Where only a bound is given, the exact number is not on record here.

The first assay has as its system HBV. Nature of the assay: HBV inhibition assay in HepAD38 cells (extracellular HBV DNA by direct qPCR). The class given is cell-based. The following applies: Hepatitis B virus, 8-point dose-response curve, 96 hours, read-out: HBV inh EC50. An excerpt: HepAD38 cell line (Ladner et al., Antimicrob Agents Chemother, 1997, 41, 1715-20) was used for HBV inhibition assays. HepAD38 is a subclone, derived from Hepatoblastoma cell line HepG2 (ATCC® Number: HB-8065™), that expresses HBV genome under the control of a tetracycline-responsive promoter in a TET-OFF system: addition of tetracycline suppresses HBV replication, while its removal switches on the process allowing HBV viral particles release in the cell supernatant. HepAD38 cell line is maintained in DMEM/F12, supplemented with 10% of fetal bovine serum, 1% of glutamine, 1% of penicillin/streptomycin, 0.4 mg/ml G418 and 0,3 ug/ml tetracycline. For the HBV inhibition assay, doxycycline-free medium is used in order to allow virion production.
HBV inhibition activity in vitro was performed in 96 multiwell plates. During the initial (primary) screening compounds were first tested in triplicates at concentrations of 0.1µM, 0.5µM amd 1µM. For selected compounds, an 8-point dose-response curve can be obtained using 1:2 serial dilutions (starting from 2.5 µM, 1.25µM or 0.4 µM, depending on the degree of inhibition observed during the primary screening). From the dose-response curves, half maximal effective concentration (EC50) can be calculated (see also below).
In more detail, compounds - typically dissolved in DMSO stock solutions - are diluted to 2x the final desired concentration in 100 µl of the above medium (without doxycycline) and plated in three replicates in the 96-well plates.
Simultaneously, HepAD38 cells - extensively pre-washed in tetracycline-free medium in order to induce HBV production - are suspended at 2*10^4 cells in 100 µl of tetracycline-free medium and added to each well of the plate, to yield a final assay volume of 200 µl DMSO - used for stock solutions and compounds dilutions - which is always present in the assays at a final concentration of 0.5%.
Plates are then incubated 96 hours at 37°C and then subjected to cell viability assay in order to define compounds cytotoxicity and to extracellular HBV quantification in order to evaluate antiviral activity of compounds. Cytotoxicity is assessed by a commercial fluorescence assay that measures the metabolic activity of cells, directly related to cell viability (Cell Titer Blue, Promega). Anti-HBV activity was evaluated by quantification of extracellular HBV DNA with direct qPCR. In particular, supernatant was collected and centrifuged for cell debris clarification, viral DNA was extracted from virions by addition of lysis buffer (1 mM 1,4-dithiothreitol, 0.2% sodium dodecyl sulphate) and incubated at 95°C for 10 min. Samples were then diluted 1:40 and real time PCR amplification was performed with SYBR green assay (Power SYBR™ Green PCR Master Mix-Thermo Fisher Scientific) and specific HBV primer (HBV-DF:5'-[…]-3' (SEQ ID No. 1), HBV-DR:5'-[…]-3' (SEQ ID No. 2)).
All HBV inhibition or antiviral activity data are typically reported in percent (%) relative to a non-treated reference sample. Excel and Graphpad Prism programs are typically used for data elaboration and EC50 calculation.
Background: Real-time PCR tracks product formation cycle by cycle.
`CC1Nc2cc(Cl)c(C(=O)Nc3cc(F)c(F)c(F)c3)cc2S(=O)(=O)N1` (stereo not drawn) [Example E10, 6-chloro-3-methyl-N-(3,4,5-trifluorophenyl)-3,4-dihydro-2H-benzo[e][1,2,4]thiadiazine-7-carboxamide 1,1-dioxide]: the EC50 was < 1000 nM. In the case of `O=C(Nc1cc(F)c(F)c(F)c1)c1ccc2c(c1)S(=O)(=O)NCCN2` [Example E94, N-(3,4,5-trifluorophenyl)-2,3,4,5-tetrahydrobenzo[f][1,2,5]thiadiazepine-8-carboxamide 1,1-dioxide], the EC50 was > 1000 nM.

As to `O=C(Nc1cc(F)c(F)c(F)c1)c1cc(F)c2c(c1)S(=O)(=O)NCN2` [Example E72, 5-fluoro-N-(3,4,5-trifluorophenyl)-3,4-dihydro-2H-benzo[e][1,2,4]thiadiazine-7-carboxamide 1,1-dioxide], the EC50 is > 1000 nM. Regarding `O=C(Nc1cc(F)c(F)c(F)c1)c1ccc2c(c1)S(=O)(=O)NC(c1nccs1)N2` (stereo not drawn) [Example E49, 3-(thiazol-2-yl)-N-(3,4,5-trifluorophenyl)-3,4-dihydro-2H-benzo[e][1,2,4]thiadiazine-7-carboxamide 1,1-dioxide], the EC50 is < 1000 nM.

The assay is the same for the next values; noted with them: Hepatitis B virus, compound at 0.1 µM, 96 hours, relative to non-treated reference, read-out: Anti HBV Activity (conc µM).
As to `CN1CC[C@H](N2C(=O)Nc3ccc(C(=O)Nc4cc(F)c(F)c(F)c4)cc3S2(=O)=O)C1` [Example E85, (S)-2-(1-methylpyrrolidin-3-yl)-3-oxo-N-(3,4,5-trifluorophenyl)-3,4-dihydro-2H-benzo[e][1,2,4]thiadiazine-7-carboxamide 1,1-dioxide], the inhibition at 0.1 µM is < 50%.

The assay is the same for the next values; noted with them: Hepatitis B virus, compound at 0.5 µM, 96 hours, relative to non-treated reference, read-out: Anti HBV Activity (conc µM).
For the compound `Cc1cc(NC(=O)c2ccc3c(c2)S(=O)(=O)N([C@H]2CC[C@H](O)CC2)C(=O)N3)ccc1F` [Example E132, N-(4-fluoro-3-methylphenyl)-2-((1r,4r)-4-hydroxycyclohexyl)-3-oxo-3,4-dihydro-2H-benzo[e][1,2,4]thiadiazine-7-carboxamide 1,1-dioxide], the inhibition at 0.5 µM is > 50%.

`O=C(Nc1cc(F)c(F)c(F)c1)c1ccc2c(c1)S(=O)(=O)N([C@H]1C[C@@H](O)C1)C(=O)N2` [Example E124, Cis-2-(3-hydroxycyclobutyl)-3-oxo-N-(3,4,5-trifluorophenyl)-3,4-dihydro-2H-benzo[e][1,2,4]thiadiazine-7-carboxamide 1,1-dioxide]: the inhibition at 0.5 µM is > 50%. The same measure, in the same setting: the figure for `O=C(Nc1cc(F)c(F)c(F)c1)c1ccc2c(c1)S(=O)(=O)NC1(N2)C(=O)Nc2ncccc21` (stereo not drawn) [Example E57, 2'-oxo-N-(3,4,5-trifluorophenyl)-1',2'-dihydro-2H,4H-spiro[benzo[e][1,2,4]thiadiazine-3,3'-pyrrolo[2,3-b]pyridine]-7-carboxamide 1,1-dioxide] is > 50%; for `O=C(Nc1cc(F)c(F)c(F)c1)c1ccc2c(c1)S(=O)(=O)N([C@H]1CC[C@@H](O)CC1)CN2` [Example E59, cis-2-(4-hydroxycyclohexyl)-N-(3,4,5-trifluorophenyl)-3,4-dihydro-2H-benzo[e][1,2,4]thiadiazine-7-carboxamide 1,1-dioxide] it is < 50%; for `O=C(Nc1cc(F)c(F)c(F)c1)c1ccc2c(c1)S(=O)(=O)N(C1CCNCC1)CN2` [Example E61, 2-(piperidin-4-yl)-N-(3,4,5-trifluorophenyl)-3,4-dihydro-2H-benzo[e][1,2,4]thiadiazine-7-carboxamide 1,1-dioxide] it is < 50%. Same read-out and setting: the figure for `O=C(Nc1cc(F)c(F)c(F)c1)c1ccc2c(c1)S(=O)(=O)NC(c1ncccn1)N2` (stereo not drawn) [Example E54, 3-(pyrimidin-2-yl)-N-(3,4,5-trifluorophenyl)-3,4-dihydro-2H-benzo[e][1,2,4]thiadiazine-7-carboxamide 1,1-dioxide] is > 50%.

Staying with this assay, now noted: Hepatitis B virus, compound at 1 µM, 96 hours, relative to non-treated reference, read-out: Anti HBV Activity (conc µM).
`CC1Nc2ccc(C(=O)Nc3ccc(F)c(F)c3)cc2S(=O)(=O)N1` (stereo not drawn) [Example E20, N-(3,4-difluorophenyl)-3-methyl-3,4-dihydro-2H-benzo[e][1,2,4]thiadiazine-7-carboxamide 1,1-dioxide]: the inhibition at 1 µM is > 50%. On the same count and under the same terms, the result for `O=C(Nc1cc(F)c(F)c(F)c1)c1ccc2c(c1)S(=O)(=O)N1CCOCC1CN2` (stereo not drawn) [Example E108, N-(3,4,5-trifluorophenyl)-1,3,4,11,12,12a-hexahydrobenzo[f][1,4]oxazino[4,3-b][1,2,5]thiadiazepine-8-carboxamide 6,6-dioxide] reads < 50%.

As for `CN1CNc2ccc(C(=O)Nc3cc(F)c(F)c(F)c3)cc2S1(=O)=O` [Example E6, 2-methyl-N-(3,4,5-trifluorophenyl)-3,4-dihydro-2H-benzo[e][1,2,4]thiadiazine-7-carboxamide 1,1-dioxide], the inhibition at 1 µM is < 50%. As for `CC(=O)NC1=Nc2ccc(C(=O)Nc3cc(F)c(F)c(F)c3)cc2S(=O)(=O)N1` [Example E70, 3-acetamido-N-(3,4,5-trifluorophenyl)-2H-benzo[e][1,2,4]thiadiazine-7-carboxamide 1,1-dioxide], the inhibition at 1 µM was < 50%. With `O=C(Nc1cc(F)c(F)c(F)c1)c1ccc2c(c1)S(=O)(=O)NC(c1ccccn1)N2` (stereo not drawn) [Example E44, 3-(pyridin-2-yl)-N-(3,4,5-trifluorophenyl)-3,4-dihydro-2H-benzo[e][1,2,4]thiadiazine-7-carboxamide 1,1-dioxide], the inhibition at 1 µM is > 50%.

`O=C(Nc1cc(F)c(F)c(F)c1)c1ccc2c(c1)S(=O)(=O)N[C@@H]1CCC[C@@H]1N2` [Example E136, (3aR,10aS)-N-(3,4,5-trifluorophenyl)-2,3,3a,4,10,10a-hexahydro-1H-benzo[f]cyclopenta[c][1,2,5]thiadiazepine-7-carboxamide 5,5-dioxide]: the inhibition at 1 µM was < 50%. Same read-out and setting: the result for `O=C(Nc1cc(F)c(F)c(F)c1)c1ccc2c(c1)S(=O)(=O)NC(c1cnc[nH]1)N2` (stereo not drawn) [Example E51, 3-(1H-imidazol-5-yl)-N-(3,4,5-trifluorophenyl)-3,4-dihydro-2H-benzo[e][1,2,4]thiadiazine-7-carboxamide 1,1-dioxide] reads < 50%. On the same count and under the same terms, the result for `O=C(Nc1cc(F)c(F)c(F)c1)c1ccc2c(c1)S(=O)(=O)N(C1CCNCC1)C(=O)N2` [Example E81, 3-oxo-2-(piperidin-4-yl)-N-(3,4,5-trifluorophenyl)-3,4-dihydro-2H-benzo[e][1,2,4]thiadiazine-7-carboxamide 1,1-dioxide] reads > 50%; that for `CC(=O)N1CCN2C(COc3ccc(C(=O)Nc4cc(F)c(F)c(F)c4)cc3S2(=O)=O)C1` (stereo not drawn) [Example E116, 2-acetyl-N-(3,4,5-trifluorophenyl)-1,2,3,4,12,12a-hexahydrobenzo[b]pyrazino[1,2-e][1,4,5]oxathiazepine-8-carboxamide 6,6-dioxide], < 50%; that for `O=C(Nc1cc(F)c(F)c(F)c1)c1ccc2c(c1)S(=O)(=O)N1CCCCC1CO2` (stereo not drawn) [Example E111, N-(3,4,5-trifluorophenyl)-1,2,3,4,12,12a-hexahydrobenzo[b]pyrido[1,2-e][1,4,5]oxathiazepine-8-carboxamide 6,6-dioxide], < 50%.

With `O=C(Nc1cc(F)c(F)c(F)c1)c1ccc2c(c1)S(=O)(=O)n1ccnc1CN2` [Example E109, N-(3,4,5-trifluorophenyl)-10,11-dihydrobenzo[f]imidazo[1,2-b][1,2,5]thiadiazepine-7-carboxamide 5,5-dioxide], the inhibition at 1 µM was < 50%. In the case of `O=C(Nc1cc(F)c(F)c(F)c1)c1ccc2c(c1)S(=O)(=O)N([C@H]1CC[C@H](O)CC1)C(=O)N2` [Example E80, trans-2-(4-hydroxycyclohexyl)-3-oxo-N-(3,4,5-trifluorophenyl)-3,4-dihydro-2H-benzo[e][1,2,4]thiadiazine-7-carboxamide 1,1-dioxide], the inhibition at 1 µM is > 50%. The same measure, in the same setting: the figure for `CC(=O)NCC1Nc2ccc(C(=O)Nc3cc(F)c(F)c(F)c3)cc2S(=O)(=O)N1` (stereo not drawn) [Example E30, 3-(acetamidomethyl)-N-(3,4,5-trifluorophenyl)-3,4-dihydro-2H-benzo[e][1,2,4]thiadiazine-7-carboxamide 1,1-dioxide] is > 50%.

In general, EC50 refers to the concentration giving half of the maximal effect.
